Publication PMC6792352, “Limited Chemical Structural Diversity Found to Modulate Thyroid Hormone Receptor in the Tox21 Chemical Library” (Environmental Health Perspectives, 2019)
Counter-ions that a name gives are not always drawn.

Test: in vitro
Conditions: rat, gh3-tre-luc cells

Compound | CC50 at 24 h (AC50 (uM) modified / 1000) [µM] | also measured
CNC [Dimethylammonium nitrate] | – | CC50 at 24 h (AC50 (uM) modified / 1000, Tox21_110001=Tox21_200580, viability, 1 nM T3 present, 24 h): > 90 µM
FC(Cl)(Cl)C(F)(Cl)Cl [1,2-Difluoro-1,1,2,2-tetrachloroethane] | – | CC50 at 24 h (AC50 (uM) modified / 1000, Tox21_110001=Tox21_200566, viability, 1 nM T3 present, 24 h): > 100 µM
CCOC(=O)c1cncn1[C@H](C)c1ccccc1 [Etomidate] | – | CC50 at 24 h (AC50 (uM) modified / 1000, Tox21_110001=Tox21_110628, viability, 1 nM T3 present, 24 h): > 20 µM
C#CCN1C(=O)COc2cc(F)c(N3C(=O)C4=C(CCCC4)C3=O)cc21 [Flumioxazin] | > 90 | –
CCOP(=S)(OCC)SC(CCl)N1C(=O)c2ccccc2C1=O (stereo not shown) [Dialifor] | – | CC50 at 24 h (AC50 (uM) modified / 1000, Tox21_110001=Tox21_300794, viability, 1 nM T3 present, 24 h): > 90 µM
O=C(O)c1cc(/N=N/c2ccc(O)c(C(=O)O)c2)ccc1O [Olsalazine sodium] | > 50 | –
CN1CCN(c2cc3c(nn2)Oc2ccccc2N3C)CC1 [Pipofezine] | > 50 | –
Cc1cc(C(=C2C=CC(=Nc3ccc(S(=O)(=O)O)cc3)C=C2)c2ccc(Nc3ccc(S(=O)(=O)O)cc3)cc2)cc(S(=O)(=O)O)c1N [C.I. Acid Blue 22] | > 60 | –
CCCCCCCC#N [Octanenitrile] | > 90 | –
O=c1c(O)c(-c2ccc(O)cc2O)oc2cc(O)cc(O)c12 [Morin hydrate] | > 90 | –
Cc1cc(C(=O)NCCc2ccc(S(=O)(=O)NC(=O)NN3CCCCCC3)cc2)no1 [Glisoxepide] | > 50 | –
CCCC(C)=O [2-Pentanone] | > 90 | –
Cc1c(C)c([N+](=O)[O-])c(C(C)(C)C)c([N+](=O)[O-])c1C [1-tert-Butyl-3,4,5-trimethyl-2,6-dinitrobenzene] | 73.9 | –
Nc1cc2c3c(c1)C(c1ccccc1)=N[C@@H](NC(=O)c1cccnc1)C(=O)N3CC2 [CI-1044] | > 90 | –
O=Cc1ccccc1 [Benzaldehyde] | > 90 | –
O=C(O)c1ccc2[nH]cc(CCCCN3CC=C(c4ccccc4)CC3)c2c1 [Carmoxirole] | > 50 | –
CCOC(=O)NC(=S)Nc1ccccc1NC(=S)NC(=O)OCC [Thiophanate] | > 90 | –
C[C@]12CC[C@@H]3c4ccc(O)cc4CC[C@H]3[C@@H]1CC[C@@H]2O [17beta-Estradiol] | > 90 | –
CCOC(=O)c1cccnc1 [Ethyl nicotinate] | > 50 | –
O=[N+]([O-])c1ccc(Oc2ccc(C(F)(F)F)cc2[N+](=O)[O-])cc1 [Fluorodifen] | – | CC50 at 24 h (AC50 (uM) modified / 1000, Tox21_110001=Tox21_301354, viability, 1 nM T3 present, 24 h): > 90 µM
CCCCCCCCCCCCCCCC(=O)OC[C@H](COP(=O)([O-])OCC[N+](C)(C)C)OC(=O)CCCCCCCCCCCCCCC [Colfosceril palmitate] | > 50 | –
CN(C)CCOCCN(C)C [Bis[2-(dimethylamino)ethyl]ether] | > 90 | –
Clc1cccc(SC2CCNCC2)n1 [Anpirtoline] | > 50 | –
Nc1ccccc1Nc1ccccc1 [2-Aminodiphenylamine] | 14.7 | –
O=C1CCO1 [beta-Propiolactone] | – | CC50 at 24 h (AC50 (uM) modified / 1000, Tox21_110001=Tox21_111026, viability, 1 nM T3 present, 24 h): > 50 µM
CCCCC(CC)(CO)CO [2-Butyl-2-ethyl-1,3-propanediol] | > 90 | –

Compound | CC50 at 24 h (AC50 (uM) modified / 1000) [µM] | also measured
CC(=O)CCC1=C(C)CCCC1(C)C [Dihydro-beta-ionone] | > 90 | –
CC(C)CC(C)(C)C [2,2,4-Trimethylpentane] | > 100 | –
CC(C)[C@@H](Nc1ccc(C(F)(F)F)cc1Cl)C(=O)OC(C#N)c1cccc(Oc2ccccc2)c1 (stereo partly shown) [tau-Fluvalinate] | > 90 | –
CCCC[N+]1(C)CCCCC1 [1-Butyl-1-methylpiperidinium tetrafluoroborate] | > 90 | –
COc1cccc([C@@]2(O)CCCC[C@@H]2CN(C)C)c1 [Tramadol hydrochloride] | > 50 | –
Cc1c(COC(=O)[C@@H]2[C@H](/C=C(\Cl)C(F)(F)F)C2(C)C)cccc1-c1ccccc1 (racemic) [Bifenthrin] | > 90 | –
CCCCOC(=O)c1ccccc1C(=O)OCc1ccccc1 [Benzyl butyl phthalate] | > 90 | –
CC(C)=C[C@@H]1[C@@H](C(=O)OCc2coc(Cc3ccccc3)c2)C1(C)C [Bioresmethrin] | > 90 | –
CCCCC(CC)CCC(CC(C)C)OS(=O)(=O)O (stereo not shown) [7-Ethyl-2-methyl-4-undecanolsulfate, sodium salt] | > 90 | –
COC1=CC(=O)O[C@@H](/C=C/c2ccc3c(c2)OCO3)C1 [Methysticin] | > 90 | –
N=c1c[n+](N2CCOCC2)[n-]o1 [3-Morpholinosydnonimine hydrochloride] | > 50 | –
N[C@@H]1C[C@H]1c1ccccc1 [Tranylcypromine hydrochloride] | > 50 | –
CCOc1nc2cccc(C(=O)O)c2n1Cc1ccc(-c2ccccc2-c2nnn[nH]2)cc1 [Candesartan] | 34.4 | –
CCNC(=O)[C@@H]1CCCN1C(=O)[C@H](CCCN=C(N)N)NC(=O)[C@H](CC(C)C)NC(=O)[C@@H](Cc1c[nH]c2ccccc12)NC(=O)[C@H](Cc1ccc(O)cc1)NC(=O)[C@H](CO)NC(=O)[C@H](Cc1c[nH]c2ccccc12)NC(=O)[C@H](Cc1cnc[nH]1)NC(=O)[C@@H]1CCC(=O)N1 [Deslorelin acetate] | 1.89 | –
CCCCCCCC(=O)N(C)C [N,N-Dimethyloctanamide] | > 90 | –
CCc1cccc(C)c1N(C(=O)CCl)C(C)COC (stereo not shown) [Metolachlor] | > 90 | –
Nc1cc(Cl)ccc1Cl [2,5-Dichloroaniline] | > 90 | –
Cc1c(C)n(CCN(C)C)c2ccc(C(=O)OCCN(C)C)cc12 [Amindocate] | 34.1 | –
COc1c(N2CCNC(C)C2)c(F)cc2c(=O)c(C(=O)O)cn(C3CC3)c12 (stereo not shown) [Gatifloxacin] | > 50 | –
CC(C)(c1ccc(Oc2ccc3c(c2)C(=O)OC3=O)cc1)c1ccc(Oc2ccc3c(c2)C(=O)OC3=O)cc1 [2,2-Bis(4-(3,4-dicarboxyphenoxy)phenyl)propane dianhydride] | > 90 | –
BrC(Br)C(Br)(Br)Br [Pentabromoethane] | – | CC50 at 24 h (AC50 (uM) modified / 1000, Tox21_110001=Tox21_200571, viability, 1 nM T3 present, 24 h): 24.2 µM
CC(=O)OCC(=O)[C@@]1(O)CC[C@H]2[C@@H]3CCC4=CC(=O)C=C[C@]4(C)[C@H]3[C@@H](O)C[C@@]21C [Prednisolone acetate] | > 50 | –
CCc1nc(C)c[nH]1 [2-Ethyl-4-methyl-1H-imidazole] | > 90 | –
CCOC(=O)CC(C)=O [Ethyl acetoacetate] | > 90 | –
C=CCS(=O)(=O)O [2-Propene-1-sulfonic acid, sodium salt] | > 90 | –
CCCCOc1ccc(N)cc1 [4-Butyloxyaniline] | > 90 | –

Compound | CC50 at 24 h (AC50 (uM) modified / 1000) [µM] | also measured
O=[N+]([O-])c1cc(C2CCCCC2)c(O)c([N+](=O)[O-])c1 [Dinex] | 8.98 | –
Cc1ccccc1N1CCN(CCc2nnc3n2CCCC3)CC1 [Dapiprazole hydrochloride] | > 50 | –
Cc1ccc(C(=O)c2ccc(CC(=O)O)n2C)cc1 [Tolmetin sodium dihydrate] | > 20 | –
CO/N=C(\C(=O)N[C@@H]1C(=O)N2C(C(=O)O)=C(CSc3nc(C)c(CC(=O)O)s3)CS[C@H]12)c1csc(N)n1 [Cefodizime sodium] | > 50 | –
ClC/C=C/CCl [(2E)-1,4-Dichlorobut-2-ene] | > 90 | –
O=P(O)(O)C(O)(Cn1ccnc1)P(=O)(O)O [Zoledronate] | > 50 | –
NC1(c2ccccc2)CCCCC1 [1-Phenylcyclohexylamine hydrochloride] | – | CC50 at 24 h (AC50 (uM) modified / 1000, Tox21_110001=Tox21_112881, viability, 1 nM T3 present, 24 h): 40.7 µM
CCOC(=O)NNc1nncc2ccccc12 [Todralazine hydrochloride] | > 50 | –
Oc1cc(O)c(Cl)cn1 [Gimeracil] | > 50 | –
C(CCOCC1CO1)COCC1CO1 (stereo not shown) [1,4-Butanediol diglycidyl ether] | > 90 | –
CCCCCCCCCCCC(=O)OCC(O)CO (stereo not shown) [1-Monolaurin] | > 90 | –
Nc1nc(-c2ccc([N+](=O)[O-])cc2)cs1 [2-Amino-4-(p-nitrophenyl)thiazole] | > 90 | –
CCCCCCCC(=O)OC [Methyl octanoate] | > 90 | –
CCCCCC[N+](=O)[O-] [1-Nitrohexane] | > 90 | –
CNC(C)=O [N-Methylacetamide] | > 90 | –
O=S1OCC2C(CO1)C1(Cl)C(Cl)=C(Cl)C2(Cl)C1(Cl)Cl (stereo not shown) [Endosulfan] | – | CC50 at 24 h (AC50 (uM) modified / 1000, Tox21_110001=Tox21_202365, viability, 1 nM T3 present, 24 h): 55.9 µM; CC50 at 24 h (AC50 (uM) modified / 1000, Tox21_110001=Tox21_300657, viability, 1 nM T3 present, 24 h): 37.5 µM
Fc1ccc(Br)cc1 [1-Bromo-4-fluorobenzene] | > 90 | –
O=C1OC2(c3ccc(O)cc3Oc3cc(O)ccc32)c2ccccc21 [Fluorescein] | > 50 | –
O=C(NOC[C@H](O)CO)c1ccc(F)c(F)c1Nc1ccc(I)cc1F [PD 0325901] | > 50 | –
O=C(Nc1ccccc1)c1ccccc1O [Salicylanilide] | > 90 | –
CO[Si](CCCS)(OC)OC [3-Mercaptopropyltrimethoxysilane] | > 90 | –
O=P(O)(O)Oc1ccccc1 [Phenyl dihydrogen phosphate] | > 90 | –
O=C(Nc1cccc2c(=O)cc(-c3nnn[nH]3)oc12)c1ccc(OCCCCc2ccccc2)cc1 [Pranlukast] | > 50 | –
CCCCCCC[N+](CC)(CC)CCCCc1ccc(Cl)cc1 [Clofilium tosylate] | > 20 | –
CN(C)CCCN1c2ccccc2Sc2ccc(Cl)cc21 [Chlorpromazine hydrochloride] | 10.6 | –
O=C1CCc2ccccc2O1 [3,4-Dihydrocoumarin] | > 90 | –
